Data from article PMC12016938, “A small molecule PKCε inhibitor reduces hyperalgesia induced by paclitaxel or opioid withdrawal” (JCI Insight, 2025).
Values joined by “and” are separate entries in the source; they are usually repeats but may differ in a detail not shown here. Equal values may be shown once. Where a name gives a salt, the structure may show the parent alone. Read-outs that look alike come from different tables or passages of the source.

What was measured:
PKCγ = target: T1, PKCγ (Homo sapiens, UniProt P05129); assay: Lance-FRET kinase assay, PKCγ; format: biochemical; conditions: Figure 1B
T1 construct: purchased SignalChem Biotech
Description: (§1) Kinase assays. CP612 was assayed against His-AVI–tagged human PKCε (1 nM) produced in Sf9 cells, and ROCK1 (Carna Biosciences; 5 nM) using the Lance-FRET kinase assay system (PerkinElmer Revvity). Other human recombinant PKCs (SignalChem Biotech) were assayed in triplicate at the following concentrations: PKCβII 1.6 nM, PKCγ 500 pM, PKCδ 5 nM, PKCθ 500 pM, and PKCζ 500 pM. PKCs were incubated in a 15 μL reaction volume with kinase buffer (20 mM Tris-HCL [pH 7.4], 10 mM MgCl2, 0.25 mM EGTA, 0.1 mg/mL BSA, and 0.15% Triton X-100), 50 nM ULight-labeled CREBtide […] (PerkinElmer, TRF0107, Revvity), and test compound. […] After incubation at 27°C for another 60 minutes, phosphorylation was detected using a FlexStation 3 Microplate Reader (Molecular Devices) in LANCE TR-FRET mode (excitation = 340 nm, emission = 665 nm) and expressed as relative fluorescence units (RFU). The percentage of inhibition was calculated as: (signal without test compound − signal with test compound)/(signal without test compound − signal without ATP) × 100. […]
(§2) Kinase assays used 11-point concentration-response curves and results were analyzed by nonlinear regression using Prism 9 (GraphPad Software) to determine IC50 values. […] Scores for pain threshold, conditioned place preference, and self-administration were analyzed by ANOVA using the following factors. […]

[1] = LogD determination (PBS/n-octanol); format: physicochemical; conditions: 1:1 0.1M PBS/n-octanol, mean of duplicate, 37°C
Description: LogD determination. Test compounds were diluted by adding 12 μL of 1 mM DMSO stocks to 1,188 μL of 1:1 0.1M PBS/n-octanol in duplicate. Samples were vortexed, shaken at 600 rpm for 3 hours at 37°C. Samples (100 μL) of each phase layer were extracted in 3 volumes of acetonitrile for 15 minutes, centrifuged at 10,000g for 10 minutes, and then analyzed by LC-MS. The ratio of concentrations measured in the organic and aqueous phases was log10 transformed to determine the logD.

[2] = Plasma protein binding, equilibrium dialysis (RED); format: in vitro ADME, human; conditions: for recovery at 4 h, 10 µM: Rapid Equilibrium Dialysis (RED) device
Description: Plasma protein binding. Binding of CP612 to human plasma proteins was measured by equilibrium dialysis using a Rapid Equilibrium Dialysis (RED) Device (Thermo Fisher Scientific). The device uses plates with wells preloaded with equilibrium dialysis membrane inserts, each of which includes 2 side-by-side chambers separated by a dialysis membrane. […] All compounds were tested in triplicate. […] A total of 200 μL of diluted test compound was then added to the plasma chambers of triplicate wells of a 48-sample RED plate (Thermo Fisher Scientific). In total, 400 μL of 0.1M PBS buffer were added to each buffer chamber. The plate was sealed with adhesive foil and incubated at 37°C with shaking for 4 hours, after which 30 μL were removed from each chamber and diluted with either 30 μL of plasma (for buffer chamber samples) or 30 μL of 0.1M PBS (for plasma chamber samples). Samples were extracted with 3 volumes of acetonitrile, centrifuged at 16,000g at 4°C for 10 minutes, and analyzed by LC-MS to calculate the amount of drug in each chamber. The percentage of free compound was calculated as the concentration in the buffer chamber/concentration in the plasma chamber × 100%. The percentage of protein-bound compound was calculated as 100% – the percentage of free compound.

ROCK1 [3] = target: T2, ROCK1 (Homo sapiens, UniProt Q13464); assay: Lance-FRET kinase assay, ROCK1; format: biochemical; set-up: purchased Carna Biosciences; conditions: mean of all runs (count 42 CP612; 38 CIDD-0072424); 2.5 μM ATP; read-out: IC50 (nM) [Enzyme: ROCK1], mean
Description: as §1, §2
Target sequence in this assay (Q13464 1-477 limits assumed): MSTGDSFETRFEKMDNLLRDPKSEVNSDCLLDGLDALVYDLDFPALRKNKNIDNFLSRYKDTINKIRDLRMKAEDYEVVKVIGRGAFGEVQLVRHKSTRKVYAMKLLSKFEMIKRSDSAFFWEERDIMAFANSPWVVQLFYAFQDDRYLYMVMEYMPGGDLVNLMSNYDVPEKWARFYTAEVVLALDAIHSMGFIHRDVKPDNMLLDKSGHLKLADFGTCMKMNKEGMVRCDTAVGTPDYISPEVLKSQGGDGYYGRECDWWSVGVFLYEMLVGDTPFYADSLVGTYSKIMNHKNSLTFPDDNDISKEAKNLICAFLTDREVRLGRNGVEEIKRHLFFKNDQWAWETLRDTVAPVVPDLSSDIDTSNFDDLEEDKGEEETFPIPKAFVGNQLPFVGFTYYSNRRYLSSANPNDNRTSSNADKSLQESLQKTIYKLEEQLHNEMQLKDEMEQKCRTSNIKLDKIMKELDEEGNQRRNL

PKCθ = PKCθ (Homo sapiens, UniProt Q04759); assay: Lance-FRET kinase assay, PKCθ; format: biochemical; set-up: purchased SignalChem Biotech
Sequence of PKCθ (Q04759 whole entry): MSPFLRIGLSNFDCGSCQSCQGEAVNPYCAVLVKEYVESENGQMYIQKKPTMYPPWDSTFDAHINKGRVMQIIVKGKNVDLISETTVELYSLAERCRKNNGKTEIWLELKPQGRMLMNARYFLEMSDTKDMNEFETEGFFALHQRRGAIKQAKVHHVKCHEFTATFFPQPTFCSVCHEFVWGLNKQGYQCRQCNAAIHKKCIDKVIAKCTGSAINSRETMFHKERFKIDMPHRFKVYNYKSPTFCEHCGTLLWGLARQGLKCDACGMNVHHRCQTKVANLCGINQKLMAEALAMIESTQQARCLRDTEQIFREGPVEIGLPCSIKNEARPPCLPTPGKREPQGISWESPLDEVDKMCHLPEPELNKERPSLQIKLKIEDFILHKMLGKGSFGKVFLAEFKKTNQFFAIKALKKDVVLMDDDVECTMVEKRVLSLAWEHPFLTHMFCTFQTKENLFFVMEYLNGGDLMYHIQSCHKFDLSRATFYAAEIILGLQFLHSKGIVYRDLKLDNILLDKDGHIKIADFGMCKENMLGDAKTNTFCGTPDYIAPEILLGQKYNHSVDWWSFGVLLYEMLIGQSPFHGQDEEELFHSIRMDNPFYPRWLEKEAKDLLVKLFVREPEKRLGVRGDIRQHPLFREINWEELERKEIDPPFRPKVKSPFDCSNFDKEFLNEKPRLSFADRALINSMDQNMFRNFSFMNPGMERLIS
Description: as §1, §2

ROCK1 [4] = target: T2, ROCK1; assay: scanMax kinome panel, ROCK1; format: binding; set-up: purchased Eurofins-DiscoverX; conditions: 200 nM CP612
Description: CP612 was screened for kinome specificity at 200 nM against 468 kinases using the scanMax assay panel from Eurofins-DiscoverX. CP612 inhibited 10 other WT kinases besides PKCε, all to < 10% of control: CLK1 (CDC Like Kinase 1), CLK4, PKN1 (Protein kinase N1), PKN2, PKCδ, PKCη, PKCθ, PRKG2 (Protein Kinase CGMP-Dependent 2), ROCK1, and ROCK2.
Target sequence in this assay (Q13464 whole entry): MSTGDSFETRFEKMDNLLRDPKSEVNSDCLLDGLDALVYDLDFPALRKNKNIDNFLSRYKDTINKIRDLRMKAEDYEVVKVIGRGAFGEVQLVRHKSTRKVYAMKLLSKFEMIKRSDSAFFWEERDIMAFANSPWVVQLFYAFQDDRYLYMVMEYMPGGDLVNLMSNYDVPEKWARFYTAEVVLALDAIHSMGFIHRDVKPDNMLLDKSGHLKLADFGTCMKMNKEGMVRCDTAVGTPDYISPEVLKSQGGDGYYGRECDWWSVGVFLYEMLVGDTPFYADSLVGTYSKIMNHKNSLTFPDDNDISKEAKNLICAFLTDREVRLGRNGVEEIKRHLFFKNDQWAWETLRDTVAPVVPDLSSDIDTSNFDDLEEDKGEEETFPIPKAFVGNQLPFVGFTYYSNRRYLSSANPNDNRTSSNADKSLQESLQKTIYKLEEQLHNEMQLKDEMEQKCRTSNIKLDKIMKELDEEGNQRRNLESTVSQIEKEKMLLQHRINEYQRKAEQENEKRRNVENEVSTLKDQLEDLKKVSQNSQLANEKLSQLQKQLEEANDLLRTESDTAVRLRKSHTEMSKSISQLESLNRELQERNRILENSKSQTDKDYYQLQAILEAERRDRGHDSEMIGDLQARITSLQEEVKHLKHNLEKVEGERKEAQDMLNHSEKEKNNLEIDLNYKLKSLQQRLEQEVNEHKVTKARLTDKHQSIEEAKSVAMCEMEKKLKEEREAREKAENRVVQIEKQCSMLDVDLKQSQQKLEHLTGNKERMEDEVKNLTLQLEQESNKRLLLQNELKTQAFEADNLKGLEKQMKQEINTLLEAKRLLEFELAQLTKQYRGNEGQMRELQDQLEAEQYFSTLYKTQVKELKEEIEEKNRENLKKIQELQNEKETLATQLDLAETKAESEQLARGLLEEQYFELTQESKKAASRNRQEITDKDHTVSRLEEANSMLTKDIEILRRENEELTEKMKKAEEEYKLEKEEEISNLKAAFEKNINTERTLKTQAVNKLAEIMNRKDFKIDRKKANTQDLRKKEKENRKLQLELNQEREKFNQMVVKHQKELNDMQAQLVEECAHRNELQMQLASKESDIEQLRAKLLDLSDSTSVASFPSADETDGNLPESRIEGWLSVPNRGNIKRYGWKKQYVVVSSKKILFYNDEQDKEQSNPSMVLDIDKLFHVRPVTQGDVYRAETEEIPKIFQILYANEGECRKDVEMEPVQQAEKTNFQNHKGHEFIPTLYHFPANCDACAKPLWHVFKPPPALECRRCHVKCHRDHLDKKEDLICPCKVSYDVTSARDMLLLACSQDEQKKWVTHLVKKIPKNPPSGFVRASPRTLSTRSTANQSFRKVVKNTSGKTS

[5] = test system: paclitaxel-induced hyperalgesia; assay: Paclitaxel-induced hyperalgesia, Randall-Selitto paw pressure test; conditions: for Force applied that led to paw withdrawal: one paw
Description: We tested if CP612 reverses this hyperalgesia. Male rats received repeated injections of paclitaxel (1 mg/kg, i.p. on days 1, 3, 5, and 7). Twenty-four hours after the last dose of paclitaxel, rats were administered vehicle (2 mL/kg, i.p.) or CP612 (20 mg/kg, i.p.).
Mechanical nociceptive thresholds in rats were quantified by the Randall-Selitto paw pressure test using an Ugo Basile Analgesy-Meter. This device applies a linearly increasing mechanical force to the dorsum or plantar region of the rat hind paw. The mechanical nociceptive threshold is defined as the force in grams at which a rat withdraws its paw. The higher the force to elicit paw withdrawal, the higher the pain threshold (and the lower the sensitivity to pain). For studies testing nociceptive thresholds after the PKCε activator ψεRACK, or after the cancer chemotherapeutic drug paclitaxel, rats were placed into cylindrical acrylic restrainers for 40 minutes before starting each session. The restrainers had lateral ports to allow access to the hind paw, as previously described ([35]), and pain thresholds were measured by applying force to the dorsum of the hind paw. Prior to starting experiments, baseline mechanical nociceptive threshold was obtained as the mean of 2–3 readings on 1 hind paw in each rat.

[6] = test system: hyperalgesia induced by morphine withdrawal; assay: Time course of hyperalgesia induced by morphine withdrawal, von Frey SUDO; conditions: for von Frey filament number that led to paw withdrawal: single male mouse; for Hyperalgesia after withdrawal from repeated morphine: male C57BL/6J mice, 20–100 mg/kg i.p. twice daily 5 days
Description: Mice received repeated injections of saline (10 mL/kg, i.p.) or morphine (20–100 mg/kg, i.p.) twice daily for 5 days, to induce dependence.
Mechanical nociceptive thresholds in mice were quantified using the simplified up-down (SUDO) method with von Frey filaments ([36]). […] The force to bend the filaments ranged from 0.008 g (filament 1) to 6 g (filament 12). Mice were acclimated to the test room and apparatus for 1 hour prior to testing. We started testing mice with filament 5 (bending force 0.16 g) and stepped up or down according to the response of the mouse. The filament that elicited a definite paw withdrawal or notable flinch was recorded. All measures were averaged between both hind paws and are expressed as filament number, which allows for parametric analysis ([36]). The higher the filament number, the higher the pain threshold (and the lower the sensitivity to pain). Prior to starting experiments, baseline threshold levels were obtained 3–4 times at 2- to 5-day intervals on each of the hind paws of the mouse.
Morphine dependence in mice was induced by repeated i.p. injections (10 mL/kg) of morphine administered at increasing doses, over 5 days (day 1: 20 mg/kg, day 2: 40 mg/kg, day 3: 60 mg/kg, day 4: 80 mg/kg, day 5: 100 mg/kg). Injections of each dose were administered twice daily, 6 hours apart.

N[C@H](CNC(=O)C1(c2ccc(Cl)cc2)CCCC1)c1ccc(C(=O)Nc2ccncc2)cc1 [CP612]
Inhibition of conventional PKCγ (PKCγ): weakly inhibited
logD at 3 h [1]: 1.5 ± 0.75
logD [1]: 1.504
% Free ([2]; (Corrected concentration in PBS / Corrected concentration in Plasma) * 100, individual replicates): 9.57% and 8.99%
% Recovery ([2]; PBS + Plasma relative to starting concentration of 10 uM, individual replicates): 52.74% and 59.65%
% Absolute (Sample_PBS) ([2]; PBS compartment, relative to starting concentration of 10 uM, individual replicates): 6.46% and 4.60% and 4.92%
fraction unbound at 4 h, 10 μM ([2]; human plasma, individual replicates, read-out: % Bound (converted)): 0.121
fraction unbound at 4 h, 10 μM ([2]; human, human plasma, 37°C, 4 hours, read-out: Plasma protein binding (% bound) (converted)): 0.102
recovery at 4 h, 10 µM ([2]; human, human plasma, PBS + Plasma relative to starting concentration of 10 uM, individual replicates, read-out: % Recovery): 59.9%
recovery at 4 h, 10 µM ([2]; human, human plasma, PBS + Plasma relative to starting concentration of 10 uM, mean of replicates, read-out: % Recovery, Mean): 57.4%
fraction unbound at 4 h, 10 μM ([2]; human, plasma, (Corrected concentration in PBS / Corrected concentration in Plasma) * 100, individual replicates, read-out: % Free): 0.121
fraction unbound at 4 h, 10 μM ([2]; human, plasma, mean of replicates, read-out: % Bound, Mean (converted)): 0.102
fraction unbound at 4 h, 10 μM ([2]; human, plasma, mean of replicates, read-out: % Free, Mean): 0.102
% Bound ([2]; individual replicates): 90.43% and 91.01%
% Absolute (Sample_Plasma) ([2]; plasma compartment, relative to starting concentration of 10 uM, individual replicates): 53.46% and 48.13% and 54.72%
IC50 (ROCK1 [3]): 65.9 ± 10.8 nM
inhibition at 0.03 µM (PKCθ; 30 nM CP612, read-out: Inhibition of novel PKCs (PKCθ)): > 50%
IC50 (PKCθ; Figure 1B PKC isozyme panel): 30.7 nM
scanMax % of control, ROCK1 (ROCK1 [4]): < 10 % of control
Force applied that led to paw withdrawal ([5]; 0min (24 h after last paclitaxel, before CP612)): 95 grams and 102.5 grams and 100 grams and 97.5 grams and 101.7 grams
Force applied that led to paw withdrawal ([5]; 15min after CP612 20 mg/kg intraperitoneally, 20 mg/kg): 120 grams and 125 grams and 110 grams and 115 grams and 117.5 grams
Force applied that led to paw withdrawal ([5]; 30min after CP612 20 mg/kg intraperitoneally, 20 mg/kg): 110 grams and 122.5 grams and 117.5 grams and 112.5 grams
Force applied that led to paw withdrawal ([5]; 60min after CP612 20 mg/kg intraperitoneally, 20 mg/kg): 111.7 grams and 120 grams and 116.7 grams and 113.3 grams and 121.7 grams
Force applied that led to paw withdrawal ([5]; 120min after CP612 20 mg/kg intraperitoneally, 20 mg/kg): 101.7 grams and 116.7 grams and 111.7 grams and 103.3 grams and 96.7 grams and 115 grams
Force applied that led to paw withdrawal ([5]; 24h after CP612 20 mg/kg intraperitoneally, 20 mg/kg): 85 grams and 116.7 grams and 90 grams and 91.7 grams and 96.7 grams
Force applied that led to paw withdrawal ([5]; baseline (before paclitaxel and CP612)): 127.5 grams and 125 grams and 140 grams
Effect on paclitaxel-induced hyperalgesia ([5]; male rats, CP612 20 mg/kg i.p., 15, 30, 60 and 120 minutes): attenuated
Decrease in paclitaxel-induced hyperalgesia 1 day after CP612 ([5]; male rats, CP612 20 mg/kg i.p., 24 hours): dissipated

CN1CC[C@]23c4c5ccc(O)c4O[C@H]2[C@@H](O)C=C[C@H]3[C@H]1C5 [Morphine, Morphine sulfate, reference compound]
von Frey filament number that led to paw withdrawal ([6]; 1week after last morphine injection): 5.5 filament number and 7.5 filament number and 6 filament number
von Frey filament number that led to paw withdrawal ([6]; 6h after last morphine injection): 7.5 filament number and 9.5 filament number and 8 filament number and 7 filament number
von Frey filament number that led to paw withdrawal ([6]; 24h after last morphine injection): 5.5 filament number and 6.5 filament number and 6 filament number and 7.5 filament number
von Frey filament number that led to paw withdrawal ([6]; Baseline): 7.5 filament number and 8.5 filament number and 8 filament number and 9.5 filament number
Hyperalgesia after withdrawal from repeated morphine ([6]; 6 hours after last injection): not present
Hyperalgesia after withdrawal from repeated morphine ([6]; 24 hours and 1 week after last injection): present
